Results from PubChem BioAssay (NCI).
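Test compounds were applied to cells in 96-well plates for 48 hours at 5 doses. GI50: concentration for 50% inhibition of growth. TGI: total growth inhibition.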

How the values were obtained:
Experiment in all cases: DTP human tumour cell line panel, 48 h
A549 NSCLC = tested on: A549 NSCLC
DU-145 prostate = tested on: DU-145 prostate
K-562 leukemia = tested on: K-562 leukemia
MALME-3M melanoma = tested on: MALME-3M melanoma
MDA-MB-435 = tested on: MDA-MB-435
PC-3 prostate = tested on: PC-3 prostate
RPMI-8226 leukemia = tested on: RPMI-8226 leukemia
SF-268 CNS = tested on: SF-268 CNS
SK-OV-3 ovarian = tested on: SK-OV-3 ovarian
T-47D breast = tested on: T-47D breast

SMILES	TGI (A549 NSCLC)	TGI (DU-145 prostate)	TGI (K-562 leukemia)	TGI (MALME-3M melanoma)	TGI (MDA-MB-435)	TGI (PC-3 prostate)	TGI (RPMI-8226 leukemia)	TGI (SF-268 CNS)	TGI (SK-OV-3 ovarian)	TGI (T-47D breast)	GI50 (DU-145 prostate)	GI50 (K-562 leukemia)	GI50 (MALME-3M melanoma)	GI50 (MDA-MB-435)	GI50 (PC-3 prostate)	GI50 (RPMI-8226 leukemia)	GI50 (SK-OV-3 ovarian)	GI50 (T-47D breast)	GI50 (A549 NSCLC)	GI50 (SF-268 CNS)
Cc1c(N=Nc2ccccc2)c(C)n(C2OC(CO)C(O)C(O)C2O)c(=S)c1C#N (centres undefined)	> 100 µM	> 100 µM	> 100 µM	> 100 µM	71.4 µM	78.6 µM	> 100 µM	> 100 µM	> 100 µM	95.8 µM										
CC(C)(C)c1cc(OCc2nn3c(Cc4ccccc4)nnc3s2)c(Cl)cc1OCc1nn2c(Cc3ccccc3)nnc2s1	> 100 µM	> 100 µM	> 100 µM	36.6 µM	> 100 µM	> 100 µM	> 100 µM	> 100 µM	> 100 µM	> 100 µM										
COC(=O)N[C@H](C(=O)O)C(C)O[Si](C)(C)C(C)(C)C (some centres undefined)	> 100 µM	> 100 µM	> 100 µM	> 100 µM	> 100 µM	> 100 µM	> 100 µM	> 100 µM	> 100 µM	> 100 µM										
Cc1nc(C)c(N2CCNCC2)c(=O)[nH]1	> 100 µM	> 100 µM	> 100 µM	> 100 µM	> 100 µM	> 100 µM	> 100 µM	> 100 µM	> 100 µM	> 100 µM										
Cc1cc(S(=O)(=O)Nc2nnc3cnc4ccccc4n23)c(S)cc1Cl	> 100 µM	> 100 µM	> 100 µM	> 100 µM	> 100 µM	> 100 µM	> 100 µM	> 100 µM	> 100 µM	> 100 µM										
COC1=CC(=O)CC(C)C12Oc1c(Cl)c(OC)cc(OC)c1C2=O (centres undefined)	> 100 µM	> 100 µM	> 66.4 µM	> 100 µM	6.42 µM	> 70.3 µM	> 100 µM	> 100 µM	> 100 µM	> 100 µM										
OCCN(/N=C\c1ccc2ccccc2c1)C1=NCCN1	> 100 µM	> 100 µM	30.4 µM	29.6 µM	32.7 µM	> 100 µM	60.8 µM	> 100 µM	> 100 µM	> 100 µM										
COc1cc2c(c(O)c1OC)CC1CCC(=O)N1C2c1cccc2ccccc12 (centres undefined)	> 100 µM	37.3 µM	> 100 µM	44.5 µM	40.4 µM	43.7 µM	> 100 µM	78.7 µM	> 100 µM	48.4 µM										
COc1ccc2c3c([nH]c2c1)CCN(CCCC(=O)c1ccc(F)cc1)C3	32.1 µM	33.9 µM	44.9 µM	27 µM	31 µM	25.6 µM	37.3 µM	34.1 µM	36.6 µM	37 µM										
Cc1cc(=O)n2nc(CCl)sc2n1	35 µM	40.6 µM	37.7 µM	26.4 µM	26.3 µM	29.8 µM	50.6 µM	39.5 µM	53.2 µM	32.3 µM										
CCN(CC)CCN1C(=O)c2c(c3c4ccccc4[nH]c3c3ccc4ccccc4c23)C1=O		3.06 µM	5.32 µM	3.46 µM	3.17 µM	3.25 µM	5.65 µM		3.01 µM	38.9 µM	1.65 µM	1.82 µM	1.79 µM	1.77 µM	1.44 µM	2.01 µM	1.57 µM	13 µM		
COc1cc(OC)cc(-c2n/c(=C\c3c(O)[nH]c4ccc(OC)cc34)cc3c2=Nc2ccccc2-3)c1	26.1 µM	10.7 µM	6.64 µM	5.42 µM	29.3 µM	62.2 µM	72.7 µM	41.2 µM	53.3 µM	75.8 µM	3.49 µM	2.65 µM	2.27 µM	4.12 µM	20.5 µM	8.88 µM	25.8 µM	24.6 µM	11.6 µM	10.2 µM
CCCCCCCCCCCC[C@@H](O)[C@H]1CCC([C@H](O)CCCCC(=O)CCCCCCCC2=C[C@H](C)OC2=O)O1 (some centres undefined)	> 50 µM	> 50 µM	> 50 µM	> 50 µM	> 50 µM	> 50 µM	> 50 µM	> 50 µM	> 50 µM	> 50 µM										
C=C(C)COC1CCCCO1 (centres undefined)	> 100 µM	> 100 µM	> 100 µM	> 100 µM	> 100 µM	> 100 µM	> 100 µM	> 100 µM	> 100 µM	> 100 µM										
O=C(/C=C(\S/C=C(/c1ccccc1)N1CCn2c(C(=O)c3ccccc3)c(C(=O)c3ccccc3)c(C(=O)c3ccccc3)c21)C(=O)c1ccccc1)c1ccccc1	> 10 µM	> 10 µM	> 10 µM	> 10 µM	> 10 µM	> 10 µM	> 10 µM	> 10 µM	> 10 µM	> 10 µM										
O=C1CC[C@@]2(O)[C@H]3Cc4ccc(-c5ccccc5)c5c4[C@@]2(CCN3CC2CC2)[C@H]1O5	43.6 µM	62.7 µM	63.7 µM	29.9 µM	26.6 µM	46.7 µM	47.8 µM	29.7 µM	54 µM	35.7 µM										
NNC(=S)NCCNC(=S)NN	> 100 µM	> 100 µM		> 100 µM	> 100 µM	> 100 µM	> 100 µM	> 100 µM	> 100 µM	> 100 µM										

SMILES	TGI (A549 NSCLC)	TGI (DU-145 prostate)	TGI (K-562 leukemia)	TGI (MALME-3M melanoma)	TGI (MDA-MB-435)	TGI (PC-3 prostate)	TGI (RPMI-8226 leukemia)	TGI (SF-268 CNS)	TGI (SK-OV-3 ovarian)	TGI (T-47D breast)	GI50 (DU-145 prostate)	GI50 (K-562 leukemia)	GI50 (MALME-3M melanoma)	GI50 (MDA-MB-435)	GI50 (PC-3 prostate)	GI50 (RPMI-8226 leukemia)	GI50 (SK-OV-3 ovarian)	GI50 (T-47D breast)	GI50 (A549 NSCLC)	GI50 (SF-268 CNS)
NC(CSSCC(N)=NCC12CC3CC(CC(C3)C1)C2)=NCC12CC3CC(CC(C3)C1)C2	31.3 µM	32.5 µM	27.2 µM	33.6 µM	28.1 µM	29.9 µM	6.17 µM	> 100 µM	36.5 µM	> 100 µM										
O=C(Nc1cccc([N+](=O)[O-])c1)c1n[nH]n(-c2cccc([N+](=O)[O-])c2)c1=O	> 100 µM	> 100 µM	> 100 µM	> 100 µM	> 100 µM	> 100 µM	> 100 µM	> 100 µM	> 100 µM	> 100 µM										
COC(=O)c1c(O)ccc2[nH]c3c(O)c4ccccc4cc3c12	> 100 µM	71 µM	> 100 µM	51.9 µM	70.7 µM	> 100 µM	44.7 µM	54.7 µM	90 µM	36.6 µM										
COc1ccc(N=NC(=O)NC(CC(C)C)C(N)=O)cc1 (centres undefined)	> 31.6 µM	> 100 µM	> 100 µM	> 100 µM	> 100 µM	> 100 µM	> 100 µM	> 100 µM	> 100 µM	> 100 µM										
CCOC(=O)C(NC(=O)c1ccccc1)(N1CCN(c2cc3c(cc2F)c(=O)c(C(=O)O)cn3CC)CC1)C(F)(F)F (centres undefined)	> 100 µM	> 100 µM	> 100 µM	90.1 µM	> 100 µM	> 100 µM	69 µM	> 100 µM	79.5 µM	88.6 µM										
NC1=Nc2cc(Cl)ccc2Sc2nc3ccccc3n21	> 100 µM	> 100 µM	> 100 µM	> 100 µM	> 100 µM	> 100 µM	> 100 µM	> 100 µM	> 100 µM	> 100 µM										
S=c1[nH]n2c(CCCCCCCCc3nnc4sc(=S)[nH]n34)nnc2s1	> 100 µM	> 100 µM	> 100 µM	> 100 µM	> 100 µM	> 100 µM	> 100 µM	> 100 µM	> 100 µM	> 100 µM										
COC(=O)c1ccc(C)cc1CC1Cc2ccc(C)cc2C1=O (centres undefined)	93.5 µM	> 100 µM	10.5 µM	24.3 µM	4.03 µM	71.8 µM	36.5 µM	61.7 µM	59.5 µM	63 µM										
Cc1oc2c(c1C)S(=O)(=O)C(C#N)=C(N(C)C)N2	> 100 µM	> 100 µM	> 100 µM	> 100 µM	> 100 µM	> 100 µM	> 100 µM	> 100 µM	> 100 µM	> 100 µM										
COc1cc2c3c(n(C)c(=O)c2cc1OC)-c1cc2c(cc1/C3=C\CCCI)OCO2	> 100 µM	> 100 µM	> 100 µM	> 100 µM	> 100 µM	> 100 µM	> 74.6 µM	> 100 µM	> 100 µM	> 95.4 µM										
Cc1ccc(C(=O)Nc2ccc(CP(=O)(O)O)cc2CP(=O)(O)O)cc1NC(=O)Nc1cc(C(=O)Nc2ccc(CP(=O)(O)O)cc2CP(=O)(O)O)ccc1C	> 100 µM	> 100 µM	> 100 µM	> 100 µM	> 100 µM	> 100 µM	> 100 µM	> 100 µM	> 100 µM	> 100 µM										
C=C1CC(Cn2ccc(=O)[nH]c2=O)(c2ccc(Cl)cc2)OC1=O (centres undefined)	32.2 µM	23.2 µM	5.38 µM	7.13 µM	21 µM	19.2 µM	3.94 µM	43.5 µM	28.3 µM	12.1 µM										
C[C@@H]1C(=O)C[C@H]2C(C)(C)CCC[C@]2(C)[C@@]1(O)CCc1ccoc1	> 100 µM	> 100 µM	> 100 µM	> 100 µM	> 100 µM	> 100 µM	> 100 µM	> 100 µM	> 100 µM	> 100 µM										
COC(=O)c1c(C#N)c(N)nc2c1CCC2	> 100 µM	> 100 µM	> 100 µM	> 100 µM	> 100 µM	> 100 µM	> 100 µM	> 100 µM	> 100 µM	> 100 µM										
Cn1c(CO)ccc1-c1ccc(-c2ccc[se]2)[se]1	> 100 µM	58 µM	> 43.3 µM	> 100 µM	26.2 µM	> 100 µM	> 71.6 µM	> 100 µM	27.2 µM	> 100 µM										
Clc1cccc(NN=Nc2ccc(-c3nc4ccccc4s3)cc2)c1	> 100 µM	> 100 µM	92.5 µM	88.2 µM	> 100 µM	> 100 µM	> 100 µM		> 100 µM	> 100 µM										
